Legend:
Assay type in all cases: cell-based
[1] = test system: human peripheral blood mononuclear cells (hPBMC); experiment: human PBMC assay, Example 3 (oligo and PLGA added at the same time, 48 well plates); details: for IFN-α / IFN-γ: oligo 20 μg/ml, PLGA 250 μg/ml, 24 hours; for IFN-α Mean / IFN-γ Mean: mean of donors 28033, 28034
Protocol: (§1) Hexameric oligonucleotides were tested for immunomodulatory activity alone and complexed with lactic acid/glycolic acid copolymer microcarrier beads using a human peripheral blood mononuclear cells (hPBMC) assay. Peripheral blood was collected from healthy volunteers by venipuncture using heparinized syringes. Blood was layered onto a FICOLL® (Amersham Pharmacia Biotech) cushion and centrifuged. hPBMCs, located at the FICOLL® interface, were collected, then washed twice with cold phosphate buffered saline (PBS). The cells were resuspended and cultured in 48 well plates at 2×10^6 cells/mL at 37° C. in RPMI 1640 with 10% heat-inactivated human AB serum plus 50 units/mL penicillin, 50 μg/mL streptomycin, 300 μg/mL glutamine, 1 mM sodium pyruvate, and 1×MEM non-essential amino acids (NEAA).
(§2) Oligonucleotides were tested as single agents, or in combination with PLGA microspheres (unmodified or cationic). All oligonucleotides contained 100% phosphorothioate linkages and were tested at 20 μg/ml. The PLGA microcarriers were used at 250 μg/ml. When oligos were tested with PLGA microcarriers, the oligo and the microcarriers were added at the same time to the culture. The cells were cultured in the in the presence of test samples for 24 hours, then cell-free medium was collected from each well and assayed for IFN-γ and IFN-α concentration. Two different oligonucleotides were used as controls: a first oligonucleotide known to have immunostimulatory activity (a 22mer oligonucleotide containing an ISS (“ISS+,” 5′-[…]-3′(SEQ ID NO:2)) and a second oligonucleotide of similar sequence but lacking immunostimulatory activity (“ISS−,” 5′-[…]-3′ (SEQ ID NO:1)). SAC (PANSORBIN® CalBiochem, 1/5000 dilution) and a untreated culture were used as additional positive and negative controls, respectively. SAC contains Staph. aureus (Cowan I) cell material. All samples were assayed in duplicate.
(§3) IFN-γ and IFN-α were assayed using CYTOSCREEN™ ELISA kits from BioSource International, Inc., according to the manufacturer's instructions.

[2] = test system: human peripheral blood mononuclear cells (hPBMC); experiment: human PBMC assay, Example 4 (oligos and PLGA premixed 15 minutes); details: for IFN-α Mean / IFN-γ Mean: mean of donors 28044, 28045
Protocol: as §1, §2, §3
Additional hexameric and pentameric oligonucleotides were tested for immunomodulatory activity in the PBMC assay. Oligonucleotides 6-6 (5′-TCGAGA-3′), 6-8 (5′-GTCGAC-3′), 6-9 (5′-GTCGTT-3′), 6-2 (5′-TCGTTT-3′), 6-3 (5′-TTCGTT-3′), 6-4 (5′-TTTCGT-3′), 5-1 (5′-TCGTC-3′), and 5-2 (5′-TCGTT-3′) were tested alone or in combination with cationic PLGA as described in Example 3 except that the oligos and PLGA were premixed for 15 minutes room temperature before addition to the cultures. The test articles were assayed using PBMC isolated from donors 28044 and 28045.

[3] = test system: human peripheral blood mononuclear cells (hPBMC); experiment: human PBMC assay, Example 5 (96 well plates, premixed); details: for IFN-α Mean / IFN-γ Mean: mean of donors 28051-28054
Protocol: as §1, §2, §3
The immunomodulatory activity of the oligonucleotides used in Examples 3 and 4 was confirmed with the human PBMC assay using PBMCs from an additional four donors (donors 28051-28054). Oligonucleotides were tested alone or in combination with cationic PLGA as described in Example 3, except that 96 well plates were used instead of 48 well plates and the oligonucleotides were premixed with the cationic microspheres at room temperature for 15 minutes before they were added to the culture, rather than being added simultaneously to the culture.

[4] = test system: human peripheral blood mononuclear cells (hPBMC); experiment: human PBMC assay, Example 6
In short: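 PBMCs at 2×10^6 cells/mL in RPMI with 10% human AB serum, 37° C., given 100% phosphorothioate oligonucleotides at 20 μg/ml, alone or with PLGA microcarriers at 250 μg/ml, added together or premixed 15 min. After 24 h, supernatant IFN-γ and IFN-α measured by ELISA in duplicate.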

[5] = test system: human peripheral blood mononuclear cells (hPBMC); experiment: human PBMC assay, Example 7 (oligo 20 μg/ml, cPLGA 100 μg/ml); details: for IFN-α Mean / IFN-γ Mean: mean of donors 28115-28118
In short: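 hPBMC from healthy donors at 2×10^6 cells/mL in RPMI 1640 + 10% human AB serum, 37° C; phosphorothioate oligos at 20 μg/ml, alone or premixed 15 min at room temperature with cationic PLGA microspheres at 100 μg/ml. IFN-γ and IFN-α in supernatants measured by ELISA after 24 h, duplicates.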

For “5′-TGACTGTGAACGTTCGAGATGA-3′ [ISS+, reference compound]”, the IFN-α ([1]; donor 28033) was 28 pg/mL, the IFN-γ ([1]; donor 28033) was 99 pg/mL and the IFN-α ([1]; donor 28034) was 106 pg/mL. The IFN-γ ([1]; donor 28034) was 223 pg/mL, the “IFN-α Mean” value [1] was 67 pg/mL and the “IFN-γ Mean” value [1] was 161 pg/mL. It also gave an IFN-α ([2]; donor 28044) of 401 pg/mL, an IFN-γ ([2]; donor 28044) of 2180 pg/mL and an IFN-α ([2]; donor 28045) of 39 pg/mL. For the same substance, the IFN-γ ([2]; donor 28045) was 669 pg/mL, the “IFN-α Mean” value [2] was 220 pg/mL and the “IFN-γ Mean” value [2] was 1425 pg/mL. For the same substance, the IFN-α ([3]; donor 28051) was 12 pg/mL, the IFN-γ ([3]; donor 28051) was 66 pg/mL and the IFN-α ([3]; donor 28052) was 28 pg/mL. For the same substance, the IFN-γ ([3]; donor 28052) was 20 pg/mL, the IFN-α ([3]; donor 28053) was 12 pg/mL and the IFN-γ ([3]; donor 28053) was 72 pg/mL. The IFN-α ([3]; donor 28054) was 12 pg/mL, the IFN-γ ([3]; donor 28054) was 23 pg/mL and the “IFN-α Mean” value [3] was 16 pg/mL. The “IFN-γ Mean” value [3] was 45 pg/mL, the IFN-α ([4]; donor 28075) was 0 pg/mL and the IFN-γ ([4]; donor 28075) was 48 pg/mL. The IFN-α ([4]; donor 28076) was 73 pg/mL, the IFN-γ ([4]; donor 28076) was 76 pg/mL and the IFN-α ([4]; donor 28077) was 54 pg/mL. The IFN-γ ([4]; donor 28077) was 15 pg/mL, the IFN-α ([4]; donor 28078) was 94 pg/mL and the IFN-γ ([4]; donor 28078) was 72 pg/mL. For the same substance, the “IFN-α Mean” value ([4]; mean of donors 28075-28078) was 55 pg/mL, the “IFN-γ Mean” value ([4]; mean of donors 28075-28078) was 53 pg/mL and the “IFN-α Mean” value ([4]; mean of volunteers 154-157) was 12 pg/mL. For the same substance, the “IFN-γ Mean” value ([4]; mean of volunteers 154-157) was 317 pg/mL, the IFN-α ([4]; volunteer 154) was 31 pg/mL and the IFN-γ ([4]; volunteer 154) was 211 pg/mL. It also gave an IFN-α ([4]; volunteer 155) of 0 pg/mL, an IFN-γ ([4]; volunteer 155) of 131 pg/mL and an IFN-α ([4]; volunteer 156) of 15 pg/mL. The IFN-γ ([4]; volunteer 156) was 86 pg/mL, the IFN-α ([4]; volunteer 157) was 0 pg/mL and the IFN-γ ([4]; volunteer 157) was 840 pg/mL. The IFN-α ([5]; donor 28115) was 54 pg/mL, the IFN-γ ([5]; donor 28115) was 156 pg/mL and the IFN-α ([5]; donor 28116) was 29 pg/mL. The IFN-γ ([5]; donor 28116) was 125 pg/mL, the IFN-α ([5]; donor 28117) was 17 pg/mL and the IFN-γ ([5]; donor 28117) was 497 pg/mL. For the same substance, the IFN-α ([5]; donor 28118) was 0 pg/mL, the IFN-γ ([5]; donor 28118) was 46 pg/mL and the “IFN-α Mean” value [5] was 25 pg/mL. For the same substance, the “IFN-γ Mean” value [5] was 206 pg/mL.

“5′-TGACTGTGAACCTTAGAGATGA-3′ (DNA, all phosphorothioate, methylation of C not given here) [ISS−, reference compound]” showed an IFN-α ([1]; donor 28033) of 0 pg/mL, an IFN-γ ([1]; donor 28033) of 3 pg/mL and an IFN-α ([1]; donor 28034) of 31 pg/mL. For the same substance, the IFN-γ ([1]; donor 28034) was 8 pg/mL, the “IFN-α Mean” value [1] was 15 pg/mL and the “IFN-γ Mean” value [1] was 5 pg/mL. For the same substance, the IFN-α ([2]; donor 28044) was 0 pg/mL, the IFN-γ ([2]; donor 28044) was 410 pg/mL and the IFN-α ([2]; donor 28045) was 0 pg/mL. The IFN-γ ([2]; donor 28045) was 51 pg/mL, the “IFN-α Mean” value [2] was 0 pg/mL and the “IFN-γ Mean” value [2] was 231 pg/mL. For the same substance, the IFN-α ([3]; donor 28051) was 0 pg/mL, the IFN-γ ([3]; donor 28051) was 5 pg/mL and the IFN-α ([3]; donor 28052) was 3 pg/mL. For the same substance, the IFN-γ ([3]; donor 28052) was 2 pg/mL, the IFN-α ([3]; donor 28053) was 1 pg/mL and the IFN-γ ([3]; donor 28053) was 3 pg/mL. The IFN-α ([3]; donor 28054) was 5 pg/mL, the IFN-γ ([3]; donor 28054) was 2 pg/mL and the “IFN-α Mean” value [3] was 2 pg/mL. The “IFN-γ Mean” value [3] was 3 pg/mL, the IFN-α ([4]; donor 28075) was 41 pg/mL and the IFN-γ ([4]; donor 28075) was 15 pg/mL. For the same substance, the IFN-α ([4]; donor 28076) was 23 pg/mL, the IFN-γ ([4]; donor 28076) was 15 pg/mL and the IFN-α ([4]; donor 28077) was 54 pg/mL. The IFN-γ ([4]; donor 28077) was 12 pg/mL, the IFN-α ([4]; donor 28078) was 27 pg/mL and the IFN-γ ([4]; donor 28078) was 16 pg/mL. The “IFN-α Mean” value ([4]; mean of donors 28075-28078) was 36 pg/mL, the “IFN-γ Mean” value ([4]; mean of donors 28075-28078) was 15 pg/mL and the “IFN-α Mean” value ([4]; mean of volunteers 154-157) was 0 pg/mL. The “IFN-γ Mean” value ([4]; mean of volunteers 154-157) was 43 pg/mL, the IFN-α ([4]; volunteer 154) was 0 pg/mL and the IFN-γ ([4]; volunteer 154) was 0 pg/mL. The IFN-α ([4]; volunteer 155) was 0 pg/mL, the IFN-γ ([4]; volunteer 155) was 17 pg/mL and the IFN-α ([4]; volunteer 156) was 0 pg/mL. For the same substance, the IFN-γ ([4]; volunteer 156) was 58 pg/mL, the IFN-α ([4]; volunteer 157) was 0 pg/mL and the IFN-γ ([4]; volunteer 157) was 98 pg/mL. The IFN-α ([5]; donor 28115) was 0 pg/mL, the IFN-γ ([5]; donor 28115) was 20 pg/mL and the IFN-α ([5]; donor 28116) was 0 pg/mL. For the same substance, the IFN-γ ([5]; donor 28116) was 22 pg/mL, the IFN-α ([5]; donor 28117) was 0 pg/mL and the IFN-γ ([5]; donor 28117) was 334 pg/mL. For the same substance, the IFN-α ([5]; donor 28118) was 0 pg/mL, the IFN-γ ([5]; donor 28118) was 14 pg/mL and the “IFN-α Mean” value [5] was 0 pg/mL. For the same substance, the “IFN-γ Mean” value [5] was 98 pg/mL.
